# Literature values as cited in patent publication US8518429B2, “Arsenic trioxide medical elution scaffold” (Beijing Amsino Medical Co., Ltd., priority 2007, dated 2013).
# Columns and labels:
# promyelocytic leukemia = details: used by hematologists in 1970s
# VSMCs = details: found by Zhuoqi ZHANG et al. and Jianwei SHAO et al.
substance,measurement,setting,value
Arsenic trioxide [As2O3],therapeutic effect in promyelocytic leukemia,promyelocytic leukemia,notable therapeutic effect
same,effects on VSMCs,VSMCs,"anti-proliferation, apoptosis promotion and cell cycle arrest"
